Like-named read-outs stand apart in the source and are kept apart here.
Test system: C. elegans
Assay: microbe, parasite or virus in culture
Conditions: Caenorhabditis elegans
[1] = 0 h, read-out: Percentage of motility inhibition 0 h
[2] = 24 h, read-out: Percentage of motility inhibition 24 h
[3] = 0 h, read-out: Percentage of motility inhibition 0 h, Table S2, C. elegans SS assay, 110 μM, 0 h, averages of 4 data points
[4] = 24 h, read-out: Percentage of motility inhibition 24 h, Table S2, C. elegans SS assay, 110 μM, 24 h, averages of 4 data points

SMILES | inhibition at 110 µM [1] [%] | inhibition at 110 µM [2] [%] | inhibition at 110 µM [3] [%] | inhibition at 110 µM [4] [%]
O=C(/C=C/c1ccc(O)cc1)OC[C@H]1O[C@@H](Oc2c(-c3ccc(O)cc3)oc3cc(O)cc(O)c3c2=O)[C@H](O)[C@@H](O)[C@@H]1O [Tiliroside] | 2 | 9 | – | –
O=c1c(O)c(-c2ccccc2)oc2ccccc12 [Flavonol] | – | – | 2 | 10
CCC(C)n1ncn(-c2ccc(N3CCN(c4ccc(OCC5COC(Cn6cncn6)(c6ccc(Cl)cc6Cl)O5)cc4)CC3)cc2)c1=O (stereo not shown) [Itraconazole] | – | – | 18 | 22
COc1cc(O)c2c(=O)c3c(O[C@@H]4O[C@H](CO)[C@@H](O)[C@H](O)[C@H]4O)ccc(O)c3oc2c1 [Swertianolin] | – | – | 11 | 0
O=C(OCC1=C[C@@H](O)[C@@H]2C=CO[C@@H](O[C@@H]3O[C@H](CO)[C@@H](O)[C@H](O)[C@H]3O)[C@H]12)c1ccc(O)cc1 [Agnuside] | – | – | 2 | 15
CC(C)=CCC[C@](C)(O)[C@H]1CC[C@]2(C)[C@@H]1[C@H](O)C[C@@H]1[C@@]3(C)CC[C@H](O)C(C)(C)[C@@H]3[C@@H](O[C@@H]3O[C@H](CO)[C@@H](O)[C@H](O)[C@H]3O[C@@H]3O[C@H](CO)[C@@H](O)[C@H](O)[C@H]3O)C[C@]12C [Ginsenoside Rf] | – | – | 0 | 0
C=CCCCCCCCCC(=O)O [10‐Undecenoic acid] | – | – | 60 | 67
O=P(O)(O)OC(Cn1cncn1)(Cn1cncn1)c1ccc(F)cc1F [Fosfluconazole] | – | – | 17 | 0
C=C(C)[C@H](CC=C(C)C)Cc1c(O)cc(OC)c2c1O[C@H](c1ccc(O)cc1O)CC2=O [Kurarinone] | – | – | 0 | 0
C[C@]1(Cn2ccnn2)[C@H](C(=O)O)N2C(=O)C[C@H]2S1(=O)=O [Tazobactam] | – | – | 16 | 21
C=C[C@H]1CN2CC[C@@]3(C(=O)Nc4ccccc43)[C@@H]2C[C@@H]1/C(=C\OC)C(=O)OC [Isocorynoxeine] | – | – | 0 | 0
C[C@@H]1CC[C@@]2(NC1)O[C@H]1C[C@H]3[C@@H]4CC=C5C[C@@H](O[C@@H]6O[C@H](CO)[C@@H](O[C@@H]7O[C@@H](C)[C@H](O)[C@@H](O)[C@H]7O)[C@H](O)[C@H]6O[C@@H]6O[C@@H](C)[C@H](O)[C@@H](O)[C@H]6O)CC[C@]5(C)[C@H]4CC[C@]3(C)[C@H]1[C@@H]2C [Solamargine] | – | – | 0 | 0
NC(=O)c1cnccn1 [Pyrazinamide] | – | – | 4 | 13
CC[C@H]1C[C@@H]2CN3CCc4c([nH]c5ccccc45)[C@](C(=O)OC)(C2)[C@H]13 [Coronaridine] | – | – | 0 | 5
CCC12C=CCN3CC[C@@]4(c5ccc(OC)cc5N(C)[C@H]4[C@@](O)(C(=O)OC)[C@@H]1OC(C)=O)[C@@H]32 (stereo partly shown) [Vindoline] | – | – | 14 | 0
C/C=C(/C)C(=O)O[C@H]1[C@@H]2[C@H](C)C(=O)O[C@@H]2C[C@@H](C)[C@@H]2C=CC(=O)[C@]21C [Brevilin A] | 0 | 0 | – | –
COc1cc(CNC(=O)CCCC/C=C/C(C)C)ccc1O [Capsaicin] | 0 | 0 | – | –
O=C(O)c1cccc2nc3ccccc3nc12 [Phenazine‐1‐carboxylic acid] | – | – | 0 | 11
C=C1CCC[C@]2(C)C[C@@H]3OC(=O)C(C)=C3C[C@@H]12 [Atractylenolide II] | – | – | 10 | 2
COc1ccc(C(=O)O[C@H]2CC[C@@]3(C)[C@@H]4CC[C@H]5[C@]6(O)C[C@H](O)[C@@]7(O)[C@@H](CN8C[C@@H](C)CC[C@H]8[C@@]7(C)O)[C@]6(O)C[C@@]53O[C@]24O)cc1OC [Veratridine] | – | – | 4 | 0
